Laboratory results: ChEMBL document CHEMBL3784937, “Synthesis and biological evaluation of indeno[1,5]naphthyridines as topoisomerase I (TopI) inhibitors with antiproliferative activity” (Eur J Med Chem, 2016)
Active and inactive are the calls of the source. The rule behind the calls is not given here.

Legend:
Homo sapiens [1] = species: Homo sapiens; experiment: Inhibition of human recombinant topoisomerase 1B expressed in Saccharomyces cerevisiae using plasmid DNA as substrate assessed as DNA relaxation at 100 uM preincubated with enzyme for 15 mins followed by substrate addition after 1 min by agarose gel electrophoresis
Homo sapiens [2] = species: Homo sapiens; experiment: Inhibition of human recombinant topoisomerase 1B expressed in Saccharomyces cerevisiae using plasmid DNA as substrate assessed as DNA relaxation at 100 uM preincubated with enzyme for 15 mins followed by substrate addition after 15 secs by agarose gel electrophoresis
[3] = Cytotoxicity against human BT20 cells assessed as growth inhibition after 48 hrs by CCK8 assay; format: functional, cell-based; settings: BT-20, 48 h
[4] = Cytotoxicity against human SKOV3 cells assessed as growth inhibition after 48 hrs by CCK8 assay; format: functional, cell-based; settings: SK-OV-3, 48 h
Homo sapiens [5] = species: Homo sapiens; experiment: Inhibition of human recombinant topoisomerase 1B expressed in Saccharomyces cerevisiae using plasmid DNA as substrate assessed as DNA relaxation at 100 uM preincubated with enzyme for 15 mins followed by substrate addition after 3 min by agarose gel electrophoresis
A549 = experiment: Cytotoxicity against human A549 cells assessed as growth inhibition after 48 hrs by CCK8 assay; format: functional, cell-based; settings: A549, 48 h
[6] = Inhibition of human recombinant topoisomerase 1B expressed in Saccharomyces cerevisiae using plasmid DNA as substrate assessed as DNA relaxation at 25 uM preincubated with enzyme for 15 mins followed by substrate addition after 50 secs by agarose gel electrophoresis
Homo sapiens [7] = species: Homo sapiens; experiment: Inhibition of human recombinant topoisomerase 1B expressed in Saccharomyces cerevisiae using plasmid DNA as substrate assessed as DNA relaxation at 50 uM preincubated with enzyme for 15 mins followed by substrate addition after 50 secs by agarose gel electrophoresis
Homo sapiens [8] = species: Homo sapiens; experiment: Inhibition of human recombinant topoisomerase 1B expressed in Saccharomyces cerevisiae using plasmid DNA as substrate assessed as DNA relaxation at 100 uM preincubated with substrate for 15 mins followed by enzyme addition after 15 secs to 3 mins by agarose gel electrophoresis
Homo sapiens [9] = species: Homo sapiens; experiment: Inhibition of human recombinant topoisomerase 1B expressed in Saccharomyces cerevisiae using plasmid DNA as substrate assessed as DNA relaxation at 100 uM after 15 secs to 3 mins by agarose gel electrophoresis

| Compound | inhibition (Homo sapiens [1]) | inhibition (Homo sapiens [2]) | IC50 [3] | IC50 [4] | inhibition (Homo sapiens [5]) | IC50 (A549) | inhibition [6] | inhibition (Homo sapiens [7]) | inhibition (Homo sapiens [8]) | inhibition (Homo sapiens [9]) |
| --- | --- | --- | --- | --- | --- | --- | --- | --- | --- | --- |
| O=[N+]([O-])c1ccc(-c2nc3cccnc3c3c2Cc2ccccc2-3)cc1 | Active | Active | 61.3 µM | 50.8 µM | Active | 5.7 µM |  |  |  |  |
| FC(F)(F)c1ccc(-c2nc3cccnc3c3c2Cc2ccccc2-3)cc1 | Active | Active | > 100 µM | > 100 µM | Active | > 100 µM |  |  |  |  |
| O=[N+]([O-])c1ccc([C@H]2Nc3cccnc3[C@H]3c4ccccc4C[C@H]32)cc1 (relative stereo) | Active | Active | > 100 µM | > 100 µM | Active | 10.5 µM |  |  |  |  |
| c1ccc(-c2nc3cccnc3c3c2Cc2ccccc2-3)cc1 | Active | Active | > 100 µM | 47.9 µM | Active | > 100 µM | Active | Active |  |  |
| Fc1ccc([C@H]2Nc3cccnc3[C@H]3c4ccccc4C[C@H]32)cc1F (relative stereo) | Active | Active | > 100 µM | > 100 µM | Active | 27.3 µM |  |  | Active |  |
| OC1c2ccccc2-c2c1c(-c1ccc(C(F)(F)F)cc1)nc1cccnc21 (stereo unspecified) | Active | Active | > 100 µM | > 100 µM | Active | > 100 µM | Active | Active |  |  |
| O=C1c2ccccc2-c2c1c(-c1cccc(F)c1)nc1cccnc21 | Active | Active | > 100 µM | > 100 µM | Active | > 100 µM | Active | Active |  |  |
| c1ccc([C@H]2Nc3cccnc3[C@H]3c4ccccc4C[C@H]32)cc1 (relative stereo) | Active | Active | > 100 µM | > 100 µM | Active | 5.3 µM |  |  |  |  |
| Fc1ccc(-c2nc3cccnc3c3c2Cc2ccccc2-3)c(F)c1 | Active | Active | 39.6 µM | 6.4 µM | Active | 1.7 µM |  |  |  |  |
| O=C1c2ccccc2-c2c1c(-c1ccc(C(F)(F)F)cc1)nc1cccnc21 | Active | Active | > 100 µM | > 100 µM | Active | > 100 µM |  |  |  |  |
| CC[C@@]1(O)C(=O)OCc2c1cc1n(c2=O)Cc2cc3ccccc3nc2-1 [CAMPTOTHECIN] | Active | Active | 0.07 µM | 0.0055 µM | inactive |  |  | Active |  | Active |
| c1ccc2c(c1)C[C@@H]1[C@H]2c2ncccc2N[C@@H]1c1ccncc1 (relative stereo) | Active | Active | 24.4 µM | 55.4 µM | Active | 10.6 µM |  |  | Active |  |
| O=C1c2ccccc2-c2c1c(-c1ccccc1)nc1cccnc21 | Active | Active | 14.1 µM | 1.9 µM | Active | 23.7 µM | Active | Active |  |  |
| Fc1ccc([C@H]2Nc3cccnc3[C@H]3c4ccccc4C[C@H]32)c(F)c1 (relative stereo) | Active | Active | 86.4 µM | > 100 µM | Active | 6.4 µM |  |  | Active |  |
| Fc1cccc([C@H]2Nc3cccnc3[C@H]3c4ccccc4C[C@H]32)c1 (relative stereo) | Active | Active | 15.5 µM | > 100 µM | Active | 3.5 µM | Active | Active | Active |  |
| O=C1c2ccccc2-c2c1c(-c1ccc(F)c(F)c1)nc1cccnc21 | Active | Active | > 100 µM | > 100 µM | Active | 20.7 µM |  |  |  |  |
| Fc1cccc(-c2nc3cccnc3c3c2Cc2ccccc2-3)c1 | Active | Active | > 100 µM | > 100 µM | Active | > 100 µM | Active | Active |  |  |
| c1ccc2c(c1)Cc1c(-c3ccncc3)nc3cccnc3c1-2 | Active | Active | 32.9 µM | 10.5 µM | Active | 2.9 µM |  |  |  |  |
| Fc1ccc(-c2nc3cccnc3c3c2Cc2ccccc2-3)cc1F | Active | Active | > 100 µM | > 100 µM | Active | 48.6 µM |  |  |  |  |
| OC1c2ccccc2-c2c1c(-c1ccccc1)nc1cccnc21 (stereo unspecified) | Active | Active | > 100 µM | > 100 µM | Active | > 100 µM |  |  |  |  |
| FC(F)(F)c1ccc([C@H]2Nc3cccnc3[C@H]3c4ccccc4C[C@H]32)cc1 (relative stereo) | Active | Active | 63.9 µM | > 100 µM | Active | 4.2 µM | Active | Active |  |  |
| O=C1c2ccccc2-c2c1c(-c1ccc(F)cc1F)nc1cccnc21 | Active | Active | > 100 µM | > 100 µM | Active | 34.1 µM |  |  |  |  |
